Results taken from paper PMC12453121, “The combined effects of tick defensin persulcatusin with conventional antibiotics and antimicrobial proteins/peptides against Staphylococcus aureus” (Microbiology, 2025).
Where “and” joins values, the source holds several entries; their conditions need not be identical. Equal values may be shown once. Read-outs that look alike come from different tables or passages of the source. Where a SMILES comes first, the peptide text is derived from it. Bridges are numbered along the chain shown (N, C = ends). Where no end group is shown, it is not given here. [ ]: non-standard residue; d: D form. The star is where a group is joined. Ileψ(thiazoline)Cys = CC[C@H](C)[C@H](N)C1=N[C@H](C(=O)*)CS1; dOrn = NCCC[C@@H](N)C(=O)O

Key:
S. aureus ATCC 29213 [1] = conditions: for combined effect with IP (interpretation of FICI): named agent combined with IP, S. aureus ATCC 29213
Procedure: A checkerboard assay was performed to evaluate the combined effect of IP and conventional antibiotics using the broth microdilution method [3031] with a final inoculum concentration of 5×10^5 c.f.u. ml^−1. Bacterial cells cultured in MHB at 30 °C were suspended in MHB or cation-adjusted MHB (caMHB) for daptomycin treatment. Bacterial suspensions were dispensed into 96-well round polypropylene plates (Watson Bio Lab, Tokyo, Japan) at an inoculum concentration of 5.0×10^5 c.f.u. ml^−1. […] After incubation at 30 °C, the OD of each well was measured using a microplate reader (MTP-310; Corona Electric Co., Ltd., Ibaraki, Japan) at 660 nm (OD660). […] The fractional inhibitory concentration (FIC) was calculated as the MIC of drug A in combination with drug B divided by drug A alone. The FIC index (FICI) was calculated as the sum of each FIC, and the lowest FICI for each combination was interpreted as follows: FICI of <0.5 was defined as synergy, FICI of ≥0.5 but <1 was defined as partial synergy, FICI of ≥1 but <4 was defined as an additive effect or irrelevant and FICI of ≥4 was defined as antagonistic.

S. aureus ATCC 29213 [2] = experiment: Killing kinetic assay of daptomycin with or without IP pretreatment; type: cell-based, Staphylococcus aureus; conditions: c.f.u. count, triplicate
Procedure: To examine the influence of S. aureus pretreated with IP on the efficacy of daptomycin against bacterial cells, a killing kinetic assay based on a modification of Grein’s method was conducted. Bacterial cells grown in MHB to the exponential growth phase were incubated with 16 µg ml^−1 IP (8×MIC) at 37 °C. Since IP interacts with the cell surface of S. aureus, causing depolarization within 15 min after incubation, the duration of the pretreatment with IP was set to […]. The cells were then centrifuged (5,000 g, 5 min, 25 °C), and the supernatant was discarded to remove IP. Pretreated cells were resuspended in caMHB with or without 10 µg ml^−1 daptomycin (10×MIC) and then incubated at 37 °C for 0, 15, 30, 60 and 120 min. The bacterial cells were then serially diluted with sterile PBS, and each dilution was plated on TSA plates. The colonies were left to incubate at 37 °C and were subsequently counted.

S. aureus ATCC 29213 [3] = experiment: Killing kinetic assay of IP or vancomycin in growth and non-growth states; type: cell-based, Staphylococcus aureus; conditions: 30 °C; for survival rate in the non-growth state: 1×10^8 c.f.u./ml, within 0.5 h then constant, % of c.f.u./ml at 0 h, triplicate; for survival rate in the non-growth state / time after which bactericidal activity / reduction of survival rate appeared in growth cells: IP 32 µg/ml or vancomycin 16 µg/ml (8×MIC); for time after which bactericidal activity / reduction of survival rate appeared in growth cells: growth state (TSB, LB Lennox or MHB)
Procedure: To study the antimicrobial effect of IP on S. aureus cells in both the growth and non-growth states, a killing kinetic assay of IP against S. aureus incubated in nutrient medium was performed as per the method described below or in the physiological buffer (PBS). Bacterial cells grown in TSB for ~24 h were adjusted to 1×10^8 c.f.u. ml^−1 in TSB, LB Lennox broth, MHB or PBS with 32 µg ml^−1 IP or 16 µg ml^−1 vancomycin, as control for antibiotic inhibited cell wall biosynthesis via interaction with lipid II, followed by incubation at 30 ℃ for a further 0.5, 1, 2, 4, 6 and 8 h. Bacterial cells were then serially diluted with sterile PBS, plated on TSA and incubated overnight at 37 °C. Colony counts were then determined, and c.f.u. ml^−1 was calculated.

S. aureus [4] = conditions: IP on cell surface of S. aureus; cited from earlier work
S. aureus [5] = test system: S. aureus; set-up: method as in PMID 22705395; conditions: cited from earlier work
[6] = named agent combined with IP (0.25–16 µg/ml), checkerboard broth microdilution in MHB (caMHB for daptomycin), 5×10^5 c.f.u./ml, 30 °C, no growth = OD660 <0.05, lowest FICI

Molecule: CC[C@H](C)[C@H](NC(=O)[C@H](CCCCN)NC(=O)[C@H](CCC(=O)O)NC(=O)[C@H](CCCCN)NC(=O)[C@H](CO)NC(=O)[C@H](CCCCN)NC(=O)[C@H](CCCNC(=N)N)NC(=O)[C@H](Cc1ccccc1)NC(=O)[C@H](Cc1ccccc1)NC(=O)[C@H](CC(=O)O)NC(=O)CNC(=O)[C@H](CC(C)C)NC(=O)[C@@H](N)CC(C)C)C(=O)NCC(=O)N[C@@H](CCCCN)C(=O)N[C@@H](CCC(=O)O)C(=O)N[C@@H](Cc1ccccc1)C(=O)N[C@@H](CCCCN)C(=O)N[C@@H](CCCNC(=N)N)C(=O)N[C@H](C(=O)N[C@H](C(=O)N[C@@H](CCC(N)=O)C(=O)N[C@@H](CCCNC(=N)N)C(=O)N[C@H](C(=O)N[C@@H](CCCCN)C(=O)N[C@@H](CC(=O)O)C(=O)N[C@@H](Cc1ccccc1)C(=O)N[C@@H](CC(C)C)C(=O)N[C@@H](CCCNC(=N)N)C(=O)N[C@@H](CC(N)=O)C(=O)N[C@@H](CC(C)C)C(=O)N[C@H](C(=O)N1CCC[C@H]1C(=O)N[C@@H](CCCNC(=N)N)C(=O)N[C@H](C(=O)N[C@@H](CCC(=O)O)C(=O)N[C@@H](CO)C(=O)O)[C@@H](C)O)C(C)C)[C@@H](C)CC)C(C)C)[C@@H](C)CC [LL-37]
- FICI (fractional inhibitory concentration index) (S. aureus ATCC 29213 [1]; [6]): 0.25
- combined effect with IP (interpretation of FICI) (S. aureus ATCC 29213 [1]; checkerboard): synergistic

Molecule: CC1(C)S[C@@H]2[C@H](NC(=O)[C@H](N)c3ccccc3)C(=O)N2[C@H]1C(=O)O [ampicillin, Ampicillin]
- FICI (fractional inhibitory concentration index) (S. aureus ATCC 29213 [1]; [6]): 0.375 and 0.38
- combined effect with IP (interpretation of FICI) (S. aureus ATCC 29213 [1]; checkerboard): synergistic

Molecule: CC[C@H](C)[C@H](N)C1=N[C@H](C(=O)N[C@@H](CC(C)C)C(=O)N[C@H](CCC(=O)O)C(=O)N[C@H](C(=O)N[C@H]2CCCCNC(=O)[C@H](CC(N)=O)NC(=O)[C@@H](CC(=O)O)NC(=O)[C@H](Cc3cnc[nH]3)NC(=O)[C@@H](Cc3ccccc3)NC(=O)[C@H]([C@@H](C)CC)NC(=O)[C@@H](CCCN)NC2=O)[C@@H](C)CC)CS1 [bacitracin, Bacitracin] ({Ileψ(thiazoline)Cys}-L[dE]IK[dOrn]I[dF]H[dD]N; lactam 4-C (inferred); N-terminus assumed)
- FICI (fractional inhibitory concentration index) (S. aureus ATCC 29213 [1]; [6]): 0.50
- combined effect with IP (interpretation of FICI) (S. aureus ATCC 29213 [1]; checkerboard): Partial synergistic

Molecule: Cc1nnc(SCC2=C(C(=O)O)N3C(=O)[C@@H](NC(=O)Cn4cnnn4)[C@H]3SC2)s1 [cefazolin, Cefazolin]
- FICI (fractional inhibitory concentration index) (S. aureus ATCC 29213 [1]; [6]): 0.75
- combined effect with IP (interpretation of FICI) (S. aureus ATCC 29213 [1]; checkerboard): Partial synergistic

Molecule: O=C(N[C@H](CO)[C@H](O)c1ccc([N+](=O)[O-])cc1)C(Cl)Cl [chloramphenicol, Chloramphenicol]
- FICI (fractional inhibitory concentration index) (S. aureus ATCC 29213 [1]; [6]): 2.0
- combined effect with IP (interpretation of FICI) (S. aureus ATCC 29213 [1]; checkerboard): additive or irrelevant

Molecule: O=C(O)c1cn(C2CC2)c2cc(N3CCNCC3)c(F)cc2c1=O [ciprofloxacin, Ciprofloxacin]
- combined effect with IP (interpretation of FICI) (S. aureus ATCC 29213 [1]; checkerboard): Partial synergistic

Molecule: CCCCCCCCCC(=O)N[C@@H](Cc1c[nH]c2ccccc12)C(=O)N[C@H](CC(N)=O)C(=O)N[C@@H](CC(=O)O)C(=O)N[C@@H]1C(=O)NCC(=O)N[C@@H](CCCN)C(=O)N[C@@H](CC(=O)O)C(=O)N[C@H](C)C(=O)N[C@@H](CC(=O)O)C(=O)NCC(=O)N[C@H](CO)C(=O)N[C@@H]([C@H](C)CC(=O)O)C(=O)N[C@@H](CC(=O)c2ccccc2N)C(=O)O[C@@H]1C [daptomycin, Daptomycin]
- time to significant reduction in bacterial cells (bactericidal activity) (S. aureus ATCC 29213 [2]; daptomycin 10 µg/ml (10×MIC), caMHB, 37 °C, no pretreatment, P<0.05): ≤ 2 h
- FICI (fractional inhibitory concentration index) (S. aureus ATCC 29213 [1]): exceeded 2.0
- MIC in the presence of sublethal concentrations of IP compared with absence of IP (S. aureus ATCC 29213 [1]; IP 0.25 to 1 µg/ml for nisin, 0.25 to 4 µg/ml for daptomycin, checkerboard): higher
- combined effect with IP (interpretation of FICI) (S. aureus ATCC 29213 [1]; checkerboard): additive, irrelevant or antagonistic

Molecule: CC[C@H]1OC(=O)[C@H](C)[C@@H](O[C@H]2C[C@@](C)(OC)[C@@H](O)[C@H](C)O2)[C@H](C)[C@@H](O[C@@H]2O[C@H](C)C[C@H](N(C)C)[C@H]2O)[C@](C)(O)C[C@@H](C)C(=O)[C@H](C)[C@@H](O)[C@]1(C)O [erythromycin, Erythromycin]
- FICI (fractional inhibitory concentration index) (S. aureus ATCC 29213 [1]; [6]): 2.0
- combined effect with IP (interpretation of FICI) (S. aureus ATCC 29213 [1]; checkerboard): additive or irrelevant

Molecule: NC[C@H]1O[C@H](O[C@H]2[C@H](O)[C@@H](O[C@H]3O[C@H](CO)[C@@H](O)[C@H](N)[C@H]3O)[C@H](N)C[C@@H]2N)[C@H](O)[C@@H](O)[C@@H]1O [kanamycin, Kanamycin]
- FICI (fractional inhibitory concentration index) (S. aureus ATCC 29213 [1]; [6]): 2.0
- combined effect with IP (interpretation of FICI) (S. aureus ATCC 29213 [1]; checkerboard): additive or irrelevant

Molecule: CN(C)[C@@H]1C(O)=C(C(N)=O)C(=O)[C@@]2(O)C(O)=C3C(=O)c4c(O)cccc4[C@@](C)(O)[C@H]3C[C@@H]12 [tetracycline, Tetracycline]
- FICI (fractional inhibitory concentration index) (S. aureus ATCC 29213 [1]; [6]): 0.75
- combined effect with IP (interpretation of FICI) (S. aureus ATCC 29213 [1]; checkerboard): Partial synergistic

Molecule: CN[C@H](CC(C)C)C(=O)N[C@H]1C(=O)N[C@@H](CC(N)=O)C(=O)N[C@H]2C(=O)N[C@H]3C(=O)N[C@H](C(=O)N[C@H](C(=O)O)c4cc(O)cc(O)c4-c4cc3ccc4O)[C@H](O)c3ccc(c(Cl)c3)Oc3cc2cc(c3O[C@@H]2O[C@H](CO)[C@@H](O)[C@H](O)[C@H]2O[C@H]2C[C@](C)(N)[C@H](O)[C@H](C)O2)Oc2ccc(cc2Cl)[C@H]1O [vancomycin, Vancomycin]
- survival rate in the non-growth state (S. aureus ATCC 29213 [3]; PBS): no reduction
- time after which bactericidal activity / reduction of survival rate appeared in growth cells (S. aureus ATCC 29213 [3]): 8 h
- FICI (fractional inhibitory concentration index) (S. aureus ATCC 29213 [1]): 2.0
- combined effect with IP (interpretation of FICI) (S. aureus ATCC 29213 [1]; checkerboard): additive or irrelevant

Molecule: GFGCPFNQGACHRHCRSIGRRGGYCAGLFKQTCTCYSR (disulfide (positions not given here)) [IP, Persulcatusin, Tick defensin isolated from the hard tick Ixodes persulcatus, 38 aa, chemically synthesized, disulphide bridges formed]
- survival rate in the non-growth state (S. aureus ATCC 29213 [3]; PBS): ~ 70%
- time to bactericidal activity in PBS (non-growth state) (S. aureus ATCC 29213 [3]; PBS, IP 8×MIC, survival constant thereafter): ≤ 0.5 h
- time after which bactericidal activity / reduction of survival rate appeared in growth cells (S. aureus ATCC 29213 [3]): 2 h
- effect of short-term IP pretreatment on killing by daptomycin (S. aureus ATCC 29213 [2]; IP 16 µg/ml (8×MIC) for 5 min at 37 °C, removed, then daptomycin 10 µg/ml in caMHB): reduced the bactericidal activity of daptomycin
- time to depolarization after incubation (S. aureus [4]): ≤ 15 min

Molecule: Gentamycin
- FICI (fractional inhibitory concentration index) (S. aureus ATCC 29213 [1]; [6]): 1.0
- combined effect with IP (interpretation of FICI) (S. aureus ATCC 29213 [1]; checkerboard): additive or irrelevant

Molecule: Lysostaphin
- FICI (fractional inhibitory concentration index) (S. aureus ATCC 29213 [1]; [6]): 0.75
- combined effect with IP (interpretation of FICI) (S. aureus ATCC 29213 [1]; checkerboard): Partial synergistic

Molecule: Lysozyme
- combined effect with IP (interpretation of FICI) (S. aureus ATCC 29213 [1]; checkerboard): Partial synergistic

Molecule: Nisin (ITSISLCTPGCKTGALMGCNMKTATCHCSIHVSK; also: lantibiotic: lanthionine rings and dehydro residues, not placed; UniProt P13068 24-57, looked up)
- FICI (fractional inhibitory concentration index) (S. aureus ATCC 29213 [1]): 0.63
- MIC in the presence of sublethal concentrations of IP compared with absence of IP (S. aureus ATCC 29213 [1]): higher
- combined effect with IP (interpretation of FICI) (S. aureus ATCC 29213 [1]; checkerboard): Partial synergistic

Molecule: areucin-1: antimicrobial peptide isolated from the marine polychaete lugworm Arenicola marina (printed arenicin-1 in b7) (RWCVYAYVRVRGVLVRYRRCW; ends and bridges not checked; cysteine pairing not given here; UniProt Q5SC60 182-202, looked up)
- FICI with chloramphenicol (S. aureus [5]; areucin-1 combined with chloramphenicol against S. aureus): 0.5
- FICI with erythromycin (S. aureus [5]; areucin-1 combined with erythromycin against S. aureus): 0.375
